Assays:
K562 cells [1] = assay: Analysis of mRNA expression (RT-qPCR); type: cell-based, human; conditions: 16 h; IS1 50 µM, IS8 12 µM, IS10 20 µM, imatinib 2 µM, GNF-2 2 µM
From the text: In the next step, the inhibitory potential of the tested compounds at the gene and protein levels was verified in K562 cells. For this purpose, we examined changes in the expression of the ABL signalling pathway and ABL downstream targets after exposure to IS1, IS8 and IS10. […] The enhanced transcription of the ABL gene might be related to the low protein level that was reached after exposure to the tested drugs. Thus, the cellular machinery could induce increased protein synthesis to counteract the effects of inhibition. […] The second gene studied, SRC, is involved in signal transduction from growth factors and receptors. Similar to ABL, the Src protein has oncogenic activity and is overexpressed in cancer cells. It is also important to emphasise that both kinases form a specific direct signalling network, as […].
Reverse transcription was carried out with 1 μg total RNA using a ProtoScript M-MuLV First Strand cDNA Synthesis Kit (New England BioLabs). The RT-qPCR was performed using a CTX96 Real-Time PCR Detection System (Biorad) in a 10 μL reaction volume containing Luna Universal qPCR Master Mix (New England BioLabs), specific primer pair mix and cDNA. The PCR reaction was performed as follows: initial denaturation at 95 °C for 60 s; followed by 40 cycles of denaturation at 95 °C, 15 s; annealing (primer-specific temperature for 30 s) and extension at 72 °C for 30 s. Melting curve analysis was used to determine the specific PCR products. The results were analysed based on comparison of the expression of the target genes with the reference gene – HPRT1 using the 2^−^ΔΔ^CT method. Experiments were performed at least four times.

K562 cells [2] = assay: Immunoblotting; type: cell-based, human; conditions: 16 h
From the text: Changes in the expression of the BCR-ABL and ABL proteins and their downstream targets, such as STAT5, Src, Akt and Fyn after treatment with the tested compounds were also examined. As shown in Figure 7(B), no significant changes in the phosphorylation of BCR-ABL were observed after treatment with the tested styrylquinazolines. […] For reference inhibitors, there were greater changes in the expression of this protein. There were also interesting changes in the downstream targets of ABL, STAT5 and Src. […] Unfortunately, contrary to our assumptions and earlier results, IS1 was ineffective in inhibiting ABL, STAT5, and Src phosphorylation at the concentrations used. However, this derivative caused downregulation of Fyn expression, which could confirm its high inhibitory potential from in vitro kinase assays. […] Thus, these compounds were capable of blocking the pro-survival pathway facilitated by Akt kinase.
Prior to the experiment, K562 cells were seeded at a density of 500,000 cells per well in 3 cm Petri dishes (Nunc). […] After 16 h of exposure, cells were collected, centrifuged, and lysed on ice in complete RIPA buffer containing Halt Protease Inhibitor Cocktail, Halt Phosphatase Inhibitor Cocktail and 0.5 M EDTA (all from Thermo Scientific). Protein quantification was measured using a BCA Protein Assay Kit (Thermo Scientific) according to the manufacturer’s protocol. Equal amounts of the proteins were electrophoresed on SDS-page gels and transferred to nitrocellulose membranes. After blocking in 5% non-fat milk prepared in TTBS (Tris buffered saline with Tween 20), membranes were incubated overnight at 4 °C with specific primary antibodies (all from Cell Signalling) at a dilution of 1:1000 for c-ABL, phospho-c-ABL, Stat5, phospho-Stat5, cyclin E1, p27, PARP, AIF, BID, Src, Fyn, Akt, phospho-Akt, and at a dilution of 1:2000 for reference proteins (vinculin, β-actin and GAPDH). The next day, membranes were washed and incubated with horseradish peroxidase (HRP)-conjugated secondary antibodies for 1 h at room temperature. Chemiluminescence signals were recorded after staining with SuperSignal™ West Pico Chemiluminescent Substrate (Thermo Scientific) using a ChemiDoc™ XRS + System (BioRad). Experiments were performed four to five times. Densitometric analysis was performed using ImageJ software (Wayne Rasband, National Institutes of Health, USA).

CSK = target: T1, CSK (Homo sapiens, UniProt P41240); assay: Tyrosine kinase assay (Kinase Selectivity System TK-2, ADP-Glo); type: biochemical; conditions: 1 h incubation, mean ± SD of four experiments
T1 construct: purchased Promega

BTK = target: T2, BTK (Homo sapiens, UniProt Q06187); assay: as above; type: biochemical; conditions: 1 h incubation, mean ± SD of four experiments
T2 construct: purchased Promega
T2 sequence (Q06187 whole entry): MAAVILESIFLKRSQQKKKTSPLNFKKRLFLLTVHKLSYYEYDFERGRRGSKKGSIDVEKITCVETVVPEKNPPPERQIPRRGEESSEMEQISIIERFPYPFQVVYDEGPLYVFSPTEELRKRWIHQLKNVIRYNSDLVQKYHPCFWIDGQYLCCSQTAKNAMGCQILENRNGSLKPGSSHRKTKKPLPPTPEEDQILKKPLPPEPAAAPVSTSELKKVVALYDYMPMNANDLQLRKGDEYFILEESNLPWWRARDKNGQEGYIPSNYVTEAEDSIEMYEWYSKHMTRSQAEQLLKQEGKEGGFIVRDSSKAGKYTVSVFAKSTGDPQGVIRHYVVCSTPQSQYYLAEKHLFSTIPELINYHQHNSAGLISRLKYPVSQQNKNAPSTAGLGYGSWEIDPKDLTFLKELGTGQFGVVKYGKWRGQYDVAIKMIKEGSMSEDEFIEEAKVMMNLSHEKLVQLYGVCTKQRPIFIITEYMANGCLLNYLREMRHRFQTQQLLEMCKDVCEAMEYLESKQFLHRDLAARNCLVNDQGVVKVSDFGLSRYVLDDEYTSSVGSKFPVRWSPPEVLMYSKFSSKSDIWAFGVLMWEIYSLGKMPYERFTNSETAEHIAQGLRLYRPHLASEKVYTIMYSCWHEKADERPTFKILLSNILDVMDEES

Lyn B = target: T3, Lyn B (Homo sapiens, UniProt P07948); assay: as above; type: biochemical; conditions: 1 h incubation, mean ± SD of four experiments
T3 construct: purchased Promega
T3 sequence (P07948 1-491 isoform P07948-2): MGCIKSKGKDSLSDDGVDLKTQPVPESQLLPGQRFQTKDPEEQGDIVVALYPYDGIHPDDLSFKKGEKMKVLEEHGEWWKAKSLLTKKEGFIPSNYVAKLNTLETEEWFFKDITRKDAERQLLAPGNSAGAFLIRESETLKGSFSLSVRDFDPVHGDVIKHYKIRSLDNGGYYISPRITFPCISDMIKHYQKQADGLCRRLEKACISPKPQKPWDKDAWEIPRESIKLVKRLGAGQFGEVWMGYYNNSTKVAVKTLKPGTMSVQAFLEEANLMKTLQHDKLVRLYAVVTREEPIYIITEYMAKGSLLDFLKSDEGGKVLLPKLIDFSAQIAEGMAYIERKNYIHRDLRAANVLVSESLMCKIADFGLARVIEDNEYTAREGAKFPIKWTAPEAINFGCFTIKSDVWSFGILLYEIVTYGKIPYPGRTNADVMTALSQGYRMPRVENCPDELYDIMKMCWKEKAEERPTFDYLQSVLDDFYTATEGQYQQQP

BRK = target: T4, BRK (Homo sapiens, UniProt Q13882); assay: as above; type: biochemical; conditions: 1 h incubation, mean ± SD of four experiments
T4 construct: purchased Promega
T4 sequence (Q13882 whole entry): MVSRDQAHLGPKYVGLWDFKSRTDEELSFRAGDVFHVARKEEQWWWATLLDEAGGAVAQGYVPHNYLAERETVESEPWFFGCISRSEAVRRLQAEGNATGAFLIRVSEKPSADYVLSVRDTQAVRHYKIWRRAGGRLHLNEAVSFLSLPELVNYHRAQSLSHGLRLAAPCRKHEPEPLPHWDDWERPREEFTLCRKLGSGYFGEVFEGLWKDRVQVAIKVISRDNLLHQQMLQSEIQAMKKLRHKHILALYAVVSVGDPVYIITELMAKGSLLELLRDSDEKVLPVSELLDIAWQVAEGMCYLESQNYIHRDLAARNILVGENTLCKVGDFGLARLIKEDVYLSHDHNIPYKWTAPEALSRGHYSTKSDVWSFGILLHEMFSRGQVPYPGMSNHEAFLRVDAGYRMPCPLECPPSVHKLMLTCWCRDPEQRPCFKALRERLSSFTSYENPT

K562 cells [3] = assay: Cell cycle assay (Muse Cell-Cycle Kit, flow cytometry); type: cell-based, human; conditions: 16 h
Description: The interesting inhibitory potential of ABL kinase and the high antiproliferative activity of several styrylquinazoline derivatives prompted us to further investigate their mechanism of action.
K562 cells were seeded in 3 cm Petri dishes (Nunc) at a density of 150,000 cells per well and incubated under standard conditions at 37 °C for 24 h. […] After 16 h of treatment, assays were performed using a Muse Cell-Cycle Kit (Millipore) according to the supplier’s instructions. Briefly, leukaemia cells were collected, washed in cold PBS, and centrifuged. Cells were then fixed in ice-cold 70% ethanol and stored at −20 °C overnight. The next day, leukaemia cells were washed with cold PBS, centrifuged and resuspended in Muse™ Cell Cycle Reagent. Samples were incubated for 30 min at room temperature in the dark. After staining, the levels of cellular subpopulations in each cell cycle phase were determined using a Muse Cell Analyser (Millipore). Experiments were performed at least four times.

Fyn A = target: T5, Fyn A (Homo sapiens, UniProt P06241); assay: Tyrosine kinase assay (Kinase Selectivity System TK-2, ADP-Glo); type: biochemical; conditions: 1 h incubation, mean ± SD of four experiments
T5 construct: purchased Promega
T5 sequence (P06241 whole entry): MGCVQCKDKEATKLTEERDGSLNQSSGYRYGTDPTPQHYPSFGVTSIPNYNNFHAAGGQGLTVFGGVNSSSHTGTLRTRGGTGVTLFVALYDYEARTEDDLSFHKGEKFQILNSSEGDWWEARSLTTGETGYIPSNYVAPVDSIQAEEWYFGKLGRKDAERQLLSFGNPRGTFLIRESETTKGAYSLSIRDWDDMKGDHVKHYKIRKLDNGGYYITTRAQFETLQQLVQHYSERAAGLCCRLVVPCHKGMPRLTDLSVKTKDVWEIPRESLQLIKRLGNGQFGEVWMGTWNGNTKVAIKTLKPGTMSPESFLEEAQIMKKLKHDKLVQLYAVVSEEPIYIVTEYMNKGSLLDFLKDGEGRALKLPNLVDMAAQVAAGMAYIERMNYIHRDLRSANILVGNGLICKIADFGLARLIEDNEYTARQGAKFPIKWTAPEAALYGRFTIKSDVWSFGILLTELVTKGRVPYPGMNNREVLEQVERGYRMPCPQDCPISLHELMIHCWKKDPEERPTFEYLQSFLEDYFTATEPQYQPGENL
From the text: All newly synthesised derivatives were screened for their inhibitory potential towards eight non-receptor tyrosine kinases, such as ABL, BTK, BRK and Src family kinases, such as CSK, Lyn, Lck, Fyn and Src. […] To facilitate the analysis of the structure and enzymatic activity, all tested compounds were divided into four subgroups based on the main structural scaffolds (the general structure of each group is shown in the second column of Table 1). Series A, B, and C were subdivided according to the S^4-aryl substituent, while D represents the different styryl groups at the C^2-quinazoline position.
Herein, we used a kinase assay that contained fully expressed kinases with their regulatory domains, which are responsible for autoinhibition. The proteins are present in their unphosphorylated form and the procedure required supplementation with ATP. Importantly, autophosphorylation of ABL is dependent on […] concentration of the protein. Thus, our experimental conditions reflect the cellular process to be simulated. The luminescence signal detected after one hour of incubation with a peptide substrate was a measure of inhibition. Under these conditions, the question of whether the inhibitors tested bind to the ortho or allosteric site of the protein could be answered. […] To test this hypothesis, further molecular docking experiments were performed to more precisely determine the binding of the tested compounds to the ABL kinase.
To determine the inhibition of non-receptor tyrosine kinases, assays were performed using the kinase selectivity system TK-2 and the ADP-Glo Kinase Assay (both from Promega). The protocol was previously developed by our group and described in reports[12]^,[36]. Experiments were performed at least four times. Data are expressed as percentage of tyrosine kinase inhibitory activity after treatment with the derivatives tested.

inhibition at 0.5 µM (CSK): 0%
inhibition at 0.5 µM (BTK): 0%
inhibition at 0.5 µM (Lyn B): 0%
inhibition at 0.5 µM (BRK): 0%
inhibition at 0.5 µM (Fyn A): 0%
SMILES: Cc1ccc(NC(=O)c2ccc(CN3CCN(C)CC3)cc2)cc1Nc1nccc(-c2cccnc2)n1 [Imatinib, imatinib, reference compound]
CCNE2 expression (mRNA) (K562 cells [1]): increase
Expression of the ABL gene (mRNA) (K562 cells [1]): slight non-significant decrease
SRC mRNA levels (K562 cells [1]): significant decrease
AIF protein (K562 cells [2]): significant increase
Src protein expression / phosphorylation (K562 cells [2]): significant accumulation
STAT5 phosphorylation (K562 cells [2]; at the concentrations used): stronger effect
Cell cycle arrest (phase) (K562 cells [3]): inhibition of G0/G1 phase
